Data from the supplement of paper PMC10307832.

Experiments:
Assay in all cases: relative viability (nuclei count vs DMSO), 5 days (fraction); higher = more cells survive
Sunitinib + Luminespib = compound: CCN(CC)CCNC(=O)c1c(C)[nH]c(/C=C2\C(=O)Nc3ccc(F)cc32)c1C [Sunitinib] + CCNC(=O)c1noc(-c2cc(C(C)C)c(O)cc2O)c1-c1ccc(CN2CCOCC2)cc1 [Luminespib] (partner 0.01 µM)
Outline: (§1)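 Lung cancer cell lines, seeded in 1536-well plates, were treated the following day by pin tool with a single drug or with five library-drug doses (not always all listed) in √10 steps on top of a fixed anchor-drug dose. Cells were fixed and nuclei stained in one step after 5 days, and nuclei were counted. Relative viability is the nuclei count for treated wells divided by that for vehicle wells, reported as medians of duplicate plates.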

Sunitinib + Pictilisib = compound: CCN(CC)CCNC(=O)c1c(C)[nH]c(/C=C2\C(=O)Nc3ccc(F)cc32)c1C [Sunitinib] + CS(=O)(=O)N1CCN(Cc2cc3nc(-c4cccc5[nH]ncc45)nc(N4CCOCC4)c3s2)CC1 [Pictilisib] (partner 1 µM)
Outline: as §1

Sunitinib + Palbociclib = compound: CCN(CC)CCNC(=O)c1c(C)[nH]c(/C=C2\C(=O)Nc3ccc(F)cc32)c1C [Sunitinib] + CC(=O)c1c(C)c2cnc(Nc3ccc(N4CCNCC4)cn3)nc2n(C2CCCC2)c1=O [Palbociclib] (partner 0.5 µM)
Outline: as §1

Sunitinib + OSI-027 = compound: CCN(CC)CCNC(=O)c1c(C)[nH]c(/C=C2\C(=O)Nc3ccc(F)cc32)c1C [Sunitinib] + COc1cccc2cc(-c3nc([C@H]4CC[C@H](C(=O)O)CC4)n4ncnc(N)c34)[nH]c12 [OSI-027] (partner 0.5 µM)
Outline: as §1

| Cell Line | relative viability (Sunitinib + Luminespib; first compound 0.02 µM) | relative viability (Sunitinib + Luminespib; first compound 0.06325 µM) | relative viability (Sunitinib + Luminespib; first compound 0.2 µM) | relative viability (Sunitinib + Luminespib; first compound 0.6325 µM) | relative viability (Sunitinib + Luminespib; first compound 2 µM) | relative viability (Sunitinib + Pictilisib; first compound 0.02 µM) | relative viability (Sunitinib + Pictilisib; first compound 0.06325 µM) | relative viability (Sunitinib + Pictilisib; first compound 0.2 µM) | relative viability (Sunitinib + Pictilisib; first compound 0.6325 µM) | relative viability (Sunitinib + Pictilisib; first compound 2 µM) | relative viability (Sunitinib + Palbociclib; first compound 0.02 µM) | relative viability (Sunitinib + Palbociclib; first compound 0.06325 µM) | relative viability (Sunitinib + Palbociclib; first compound 0.2 µM) | relative viability (Sunitinib + Palbociclib; first compound 0.6325 µM) | relative viability (Sunitinib + Palbociclib; first compound 2 µM) | relative viability (Sunitinib + OSI-027; first compound 0.02 µM) | relative viability (Sunitinib + OSI-027; first compound 0.06325 µM) | relative viability (Sunitinib + OSI-027; first compound 0.2 µM) | relative viability (Sunitinib + OSI-027; first compound 0.6325 µM) | relative viability (Sunitinib + OSI-027; first compound 2 µM) |
| --- | --- | --- | --- | --- | --- | --- | --- | --- | --- | --- | --- | --- | --- | --- | --- | --- | --- | --- | --- | --- |
| LOU-NH91 | 0.332 | 0.403 | 0.338 | 0.357 | 0.349 | 0.525 | 0.537 | 0.533 | 0.556 | 0.53 | 0.592 | 0.536 | 0.562 | 0.473 | 0.555 | 0.778 | 0.74 | 0.772 | 0.73 | 0.742 |
| HCC-15 | 0.251 | 0.278 | 0.347 | 0.255 | 0.227 | 0.68 | 0.791 | 0.888 | 0.749 | 0.774 | 0.707 | 0.737 | 0.792 | 0.696 | 0.715 | 0.608 | – | 0.852 | 0.714 | 0.641 |
| HCC-827 | 0.572 | 0.377 | 0.606 | 0.751 | 0.554 | 1.01 | 1.09 | 1.11 | 1.11 | 1.13 | 0.487 | 0.506 | 0.542 | 0.478 | 0.534 | 0.743 | 0.709 | – | 0.76 | 0.826 |
| NCI-H1734 | 0.166 | 0.186 | 0.188 | 0.149 | 0.212 | 0.433 | 0.518 | 0.522 | 0.452 | 0.423 | 0.364 | 0.375 | 0.37 | 0.34 | 0.323 | 0.613 | 0.683 | 0.7 | 0.608 | 0.511 |
| NCI-H322M | – | 0.859 | 0.966 | 0.948 | 0.616 | 0.497 | 0.553 | 0.582 | 0.511 | 0.474 | 0.454 | 0.48 | 0.479 | 0.461 | 0.497 | 0.53 | 0.582 | 0.656 | 0.624 | 0.549 |
| SW 1573 | 0.156 | 0.248 | 0.247 | 0.189 | 0.186 | 0.511 | 0.438 | 0.591 | 0.555 | 0.458 | 0.412 | 0.316 | 0.42 | 0.414 | 0.397 | 0.617 | 0.938 | 0.779 | 0.781 | 0.671 |
| NCI-H2126 | 0.875 | 0.918 | 0.897 | 0.985 | 0.866 | 0.465 | 0.55 | 0.517 | 0.563 | 0.502 | 0.341 | 0.36 | 0.37 | 0.338 | 0.359 | 0.738 | 0.665 | 0.988 | 0.773 | 0.672 |
| 201T | 1.05 | 1.05 | 1.05 | 1.08 | 1.03 | 0.697 | 0.708 | 0.738 | 0.675 | 0.738 | 0.347 | 0.363 | 0.336 | 0.352 | 0.378 | 0.663 | 0.778 | 0.904 | 0.733 | 0.654 |
